Source: article PMC5711939, “The rumen microbiome: an underexplored resource for novel antimicrobial discovery” (NPJ Biofilms and Microbiomes, 2017)
Ends that are not written are not given here.

Assays:
Sal. typhimurium SL1344 = assay: microbe, parasite or virus in culture
Procedure: (§1) Peptides dissolved in sterile distilled water and comparator antibiotics dissolved in the appropriate solvents[38] were added to sterile U-bottom polypropylene 96-well microplates at desired concentrations.

[1] = tested on: List. monocytogenes NCTC 11994; assay: microbe, parasite or virus in culture; settings: NCTC 11994
Procedure: as §1

S. aureus = assay: microbe, parasite or virus in culture; settings: for MIC: strain RN4220, Sensitive, cation adjusted MHB, 18–24 h
Procedure: as §1

Ent. faecalis JH2-2 = assay: microbe, parasite or virus in culture
Procedure: as §1

USA300 MRSA (BAA-1717) = assay: Murine model of MRSA wound infection; type: in vivo, Staphylococcus aureus; settings: ICR mice, topical 2% once daily for 3 days, five mice/group
Procedure: The efficacy of Lynronne-1, Lynronne-2 and Lynronne-3 for treating a wound infection caused by USA300 community-associated methicillin resistant S. aureus (MRSA, strain BAA-1717) was evaluated using a murine wound model with ICR mice.[24] A sharp punch (ID 12 mm) was used to create excisional skin wounds in groups of five female ICR mice (5–6 weeks old). The mice were inoculated topically on the wound area (5 µl per wound) with 1.05 × 10^5 CFU/mouse of strain BAA-1717 suspended in 5 µl PBS. Peptides (2 or 10% w/v) in PBS (pH 7.4), control (PBS), and mupirocin 2% (Dermasafe® ointment) were topically applied (20 µl/mouse) directly to wounds 2 h post infection and once daily thereafter for three consecutive days. Test animals were sacrificed and the wound tissue was excised for enumeration of bacteria cells (CFU/wound). A two-log reduction in the bacterial count (≥99% reduction) relative to the control group indicates significant activity. Statistical significance (P < 0.05) was performed with one-way analysis of variance (ANOVA) followed by use of the Dunnett’s method.

in vitro = settings: 25% serum
Procedure: The stability of Lynronne-1, Lynronne-2 and Lynronne-3 in the presence of serum was investigated by monitoring the concentrations of the remaining soluble peptides by reverse phase high-performance liquid chromatography (RP-HPLC), as described previously by Nguyen and colleagues.[26] Degradation of Lynronne-1, Lynronne-2 and Lynronne-3 in the presence of trypsin was adapted from a previously described method.[46] Briefly, trypsin (5 µl of 0.5 ng/ml) and 37.5 µl trypsin activation buffer (50 mM Tris, 2 mM CaCl2, pH 7.8-8) was added to 7.5 µl of 5 mg/ml Lynronne-1, Lynronne-2 and Lynronne-3 and incubated at 37 °C for different time points (0, 1, 3, and 24 h). An aliquot from each reaction mixture at 0 h was prepared to allow matrix-assisted laser desorption/ionization time-of-flight (MALDI-TOF) mass spectrometric verification of the synthetic peptides prior to incubation. Trypsin action buffer (5 µl) and peptides without trypsin was used as negative control. After the various incubation times, the reaction mixtures were acidified by addition of an equal volume (50 µl) of 10% (v/v) trifluroacetic acid (TFA) to stop further enzyme activity. Lynronne-1, Lynronne-2 and Lynronne-3 degradation products were evaporated to dryness and reconstituted in acetonitrile/water/TFA (40/59.5/0.5%, v/v/v). Samples (1 µl) were carefully placed onto a stainless steel (MALDI) target, covered with 1 µl of matrix (53 mM a-cyano-4-hydroxycinnamic acid in acetonitrile/water/TFA, 70/29.97/0.03%, v/v/v) solution before analysis by mass spectrometry.

MRSA strains = assay: Time kill kinetics; type: cell-based, Staphylococcus aureus; settings: 3× MIC, MHB
Procedure: Assessment of the bactericidal activity of peptides and comparator antibiotics was performed as previously described[39] using exponential-phase cultures of pathogens grown in MHB ([…]). Peptides were added at concentrations 3 times their MIC values. Experiments were performed in quadruplicates, and CFU/ml was calculated at different time points after over overnight incubation.

C. coli = tested on: C. coli
Procedure: as §1

[2] = tested on: human and sheep erythrocytes
Procedure: The haemolytic activity of peptides was determined by measuring haemoglobin leakage from human and sheep erythrocytes (Divbioscience, NL) after 1 h incubation at OD450nm. Cetyltrimethylammonium bromide (CTAB), a non-specific detergent was also included as a positive control. Triton-X 100 (0.1% v/v) was also used as an indicator of 100% haemolysis while PBS treatment represented auto-haemolysis.

EMRSA-15 = assay: SPOT peptide library screen (resazurin fluorescence); type: cell-based, Staphylococcus aureus; set-up: unit not given here; settings: 75% reduction of fluorescence vs untreated controls; active IC75≤0.25, semi-active 0.25<IC75≤0.50, inactive IC75>0.5
Source text: The peptides in the created peptide library were synthesized based on the SPOT technique and pure peptides (≥95% purity) were synthesized on resin using solid phase Fmoc peptide chemistry.[16] The 135 peptides in the peptide library were screened for antimicrobial activity using both luminescent (Pseudomonas aeruginosa strain H1001)[34] and non-luminescent (epidemic methicillin resistant S. aureus EMRSA-15, Sal. typhimurium and E. coli K12) bacterial strains. Activity against non-luminescent bacteria strains was assessed by fluorescence readings (excitation/emission spectra of 560/590 nm) after the addition of resazurin dye (100 µm final concentration). The results from the screen were analysed using the MATLAB extension Gait-CAD as previously described.[35] Concentration values with a 75% reduction of luminescence or fluorescence (IC75) in relation to untreated controls were computed.

Substance: HLRRINKLLTRIGLYRHAFG-NH2 [Lynronne-2]
- MIC (Sal. typhimurium SL1344): 32 µg/mL
- MIC [1]: 32 µg/mL
- MIC (S. aureus): 32 µg/mL
- MIC (Ent. faecalis JH2-2): 32 µg/mL
- Colony count relative to the control group treated with PBS (USA300 MRSA (BAA-1717)): No significant decreases
- remaining at 2 h (in vitro): ≥ 60%
- remaining at 6 h (in vitro): 42%
- Reduction in viable count (MRSA strains; in 30 min): > 3 log10 CFU/ml
- MIC (C. coli): >128 µg/mL
- Haemolytic activity against red blood cells [2]: little haemolytic activity
- IC75 values indicating activity classes, EMRSA-15 (EMRSA-15): 0.29

Substance: LPRRNRWSKIWKKVVTVFS-NH2 [Lynronne-1]
- MIC (Sal. typhimurium SL1344): 32 µg/mL
- MIC [1]: 32 µg/mL
- MIC range for methicillin-resistant S. aureus (MRSA) strains (S. aureus): 8 to 32 µg/mL
- MIC (S. aureus): 32 µg/mL
- MIC (Ent. faecalis JH2-2): 32 µg/mL
- Colony count relative to the control group treated with PBS (USA300 MRSA (BAA-1717)): significant decrease
- remaining at 2 h (in vitro): 48%
- remaining at 6 h (in vitro): 15%
- Reduction in viable count (MRSA strains; within the first 10 min): > 8 log10 CFU/ml
- MIC (C. coli): 64 µg/mL
- Haemolytic activity against red blood cells [2]: little haemolytic activity
- IC75 values indicating activity classes, EMRSA-15 (EMRSA-15): 0.38

Substance: NRFTARFRRTPWRLCLQFRQ-NH2 [Lynronne-3]
- MIC (Sal. typhimurium SL1344): 64 µg/mL
- MIC [1]: 32 µg/mL
- MIC range for methicillin-resistant S. aureus (MRSA) strains (S. aureus): 32 to 128 µg/mL
- MIC (S. aureus): 32 µg/mL
- MIC (Ent. faecalis JH2-2): 64 µg/mL
- Colony count relative to the control group treated with PBS (USA300 MRSA (BAA-1717)): No significant decreases
- remaining at 2 h (in vitro): ≥ 88%
- remaining at 6 h (in vitro): 34%
- Reduction in viable count (MRSA strains; within the first 10 min): > 8 log10 CFU/ml
- MIC (C. coli): 128 µg/mL
- Haemolytic activity against red blood cells [2]: little haemolytic activity
- IC75 values indicating activity classes, EMRSA-15 (EMRSA-15): 0.65
